Patent publication US9540391B2, “Isomannide derivatives as inhibitors of soluble epoxide hydrolase” (SANOFI, priority 2013, dated 2017)
Where a name gives a salt, the structure may show the parent alone.

Molecular target: T1, recombinant sEH (Homo sapiens, UniProt P34913)
T1 construct: made in house; host or cells: Sf9 insect cells
T1 sequence (P34913 1-555): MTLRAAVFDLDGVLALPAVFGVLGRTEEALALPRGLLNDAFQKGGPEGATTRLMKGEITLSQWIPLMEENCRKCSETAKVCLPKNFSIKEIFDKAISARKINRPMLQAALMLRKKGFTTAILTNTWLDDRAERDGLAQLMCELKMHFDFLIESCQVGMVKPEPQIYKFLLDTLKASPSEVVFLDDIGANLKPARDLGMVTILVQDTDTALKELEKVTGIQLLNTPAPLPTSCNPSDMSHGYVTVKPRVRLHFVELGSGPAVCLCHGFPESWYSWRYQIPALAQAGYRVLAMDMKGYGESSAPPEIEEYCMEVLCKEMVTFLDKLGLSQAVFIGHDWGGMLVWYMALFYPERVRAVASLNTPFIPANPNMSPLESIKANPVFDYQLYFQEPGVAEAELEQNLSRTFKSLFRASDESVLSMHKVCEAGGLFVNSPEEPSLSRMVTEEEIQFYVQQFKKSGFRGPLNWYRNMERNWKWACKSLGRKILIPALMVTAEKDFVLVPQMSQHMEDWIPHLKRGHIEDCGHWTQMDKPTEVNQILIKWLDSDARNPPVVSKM
Experiment: biochemical screening assay for inhibition of soluble epoxide hydrolase (fluorometric, Phome substrate)
Procedure, shortened: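 Human sEH from Sf9 cells (2 nM final) was pre-incubated 15 min at 30 °C with compound (0.0001–10 μM), then reacted 60 min at 30 °C with 5 μM Phome in 25 mM Hepes/0.01% albumin. Fluorescence of released 6-methoxy-2-naphthaldehyde was read before substrate and at end; IC50 from % inhibition.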

SMILES	IC50 [nM]
Cc1ncccc1O[C@H]1CO[C@H]2[C@@H]1OC[C@@H]2NC(=O)NCCN1CCCC1=O [Example 236, 1-[(3S,3aR,6S,6aS)-6-(2-Methyl-pyridin-3-yloxy)-hexahydro-furo[3,2-b]furan-3-yl]-3-[2-(2-oxo-pyrrolidin-1-yl)-ethyl]-urea]	3840
O=C(NC1CCCCC1)N[C@H]1CO[C@H]2[C@@H]1OC[C@@H]2Oc1cccc(Cl)c1Cl [Example 97, 1-Cyclohexyl-3-[(3S,3aR,6S,6aS)-6-(2,3-dichloro-phenoxy)-hexahydro-furo[3,2-b]furan-3-yl]-urea]	3
Cc1ncccc1O[C@H]1CO[C@H]2[C@@H]1OC[C@@H]2NC(=O)NC1CCCCC1(C)C (stereo partly drawn) [Example 270, 1-(2,2-Dimethyl-cyclohexyl)-3-[(3S,3aR,6S,6aS)-6-(2-methyl-pyridin-3-yloxy)-hexahydro-furo[3,2-b]furan-3-yl]-urea]	16
CN1CCN(C(=O)c2ccc(O[C@H]3CO[C@H]4[C@@H]3OC[C@@H]4NC(=O)NC3CCCCC3)cc2)CC1 [Example 119, 1-Cyclohexyl-3-{(3S,3aR,6S,6aS)-6-[4-(4-methyl-piperazine-1-carbonyl)-phenoxy]-hexahydro-furo[3,2-b]furan-3-yl}-urea; trifluoroacetate]	21
Cc1ncccc1O[C@H]1CO[C@H]2[C@@H]1OC[C@@H]2NC(=O)NCc1ccc(Cl)s1 [Example 208, 1-(5-Chloro-thiophen-2-ylmethyl)-3-[(3S,3aR,6S,6aS)-6-(2-methyl-pyridin-3-yloxy)-hexahydro-furo[3,2-b]furan-3-yl]-urea]	15
O=C(Nc1cccc(C(F)(F)F)c1)N[C@H]1CO[C@H]2[C@@H]1OC[C@@H]2/C=C\c1ccsc1 [Example 346, 1-[(3S,3aR,6S,6aR)-6-((Z)-2-Thiophen-3-yl-vinyl)-hexahydro-furo[3,2-b]furan-3-yl]-3-(3-trifluoromethyl-phenyl)-urea]	62
Cc1cc(CNC(=O)N[C@H]2CO[C@H]3[C@@H]2OC[C@@H]3Oc2cccnc2C)on1 [Example 171, 1-(3-Methyl-isoxazol-5-ylmethyl)-3-[(3S,3aR,6S,6aS)-6-(2-methyl-pyridin-3-yloxy)-hexahydro-furo[3,2-b]furan-3-yl]-urea]	2350
COC(=O)c1cccc(NC(=O)NC2COC3C(C#Cc4ccsc4)COC23)c1 [Example 309, 3-[3-((3S,3aR,6S,6aR)-6-Thio-phen-3-ylethynyl-hexahydro-furo[3,2-b]furan-3-yl)-ureido]-benzoic acid methyl ester]	16
Cc1cncc(O[C@H]2CO[C@H]3[C@@H]2OC[C@@H]3NC(=O)NC2CCCCC2)c1 [Example 36, 1-Cyclohexyl-3-[(3S,3aR,6S,6aS)-6-(5-methyl-pyridin-3-yloxy)-hexa-hydro-furo[3,2-b]furan-3-yl]-urea]	1
N#CCc1cccc(O[C@H]2CO[C@H]3[C@@H]2OC[C@@H]3NC(=O)NC2CCCCC2)c1 [Example 117, 1-[(3S,3aR,6S,6aS)-6-(3-Cyano-methyl-phenoxy)-hexahydro-furo-[3,2-b]furan-3-yl]-3-cyclohexyl-urea]	5
CCC(OC)(c1cccc(O[C@H]2CO[C@H]3[C@@H]2OC[C@@H]3NC(=O)NC2CCCCC2)c1)c1nccs1 (stereo partly drawn) [Example 122, 1-Cyclohexyl-3-{(3S,3aR,6S,6aS)-6-[3-(1-methoxy-1-thiazol-2-yl-propyl)-phenoxy]-hexahydro-furo[3,2-b]furan-3-yl}-urea]	2
